Test results taken from patent US20250205164A1, “FPR2 AGONIST CONTAINING OUTER MEMBRANE VESICLES DERIVED FROM LACTIC ACID BACTERIUM” (ASAHI GROUP HOLDINGS, LTD., priority 2022, published 2025).

Tested on: M2 macrophages differentiated from human monocyte-derived cells (THP-1)
Assay: IL-10 inducing ability in M2 macrophages (Human IL-10 ELISA of culture supernatant)
Type: cell-based
Conditions: Reference Example 1; 500 ng/ml FSL-1, 5000 nM WKYMVm at preparation, final 1/50; 24 hours; n=6
Protocol: The anti-inflammatory cytokine IL-10 inducing ability in M2 macrophages differentiated from human monocyte-derived cells (THP-1, JCRB Cell Bank) was evaluated by the following procedure, which is a modification of the method described in the literature (BMC Cancer 15:577 (2015)). […]
After the culture, the culture supernatant was collected, and the IL-10 concentration in the supernatant was calculated using Human IL-10 DuoSet ELISA (R&D Systems). […]
Student's t-test was used for statistical processing. […] The results of IL-10 concentration are shown as the average of the values measured in six tests. […]
The IL-10 inducing activity of the test samples was evaluated according to the procedure described in [Reference Example 1] above. […]
The IL-10 induction rate was calculated according to the following formula. […]

FSL-1
IL-10 Concentration (pg/mL) Average: 180.8 pg/mL
